Measurements reported in publication PMC314469, “Protein Interaction Networks by Proteome Peptide Scanning” (PLoS Biology, 2004).
No end group written: not given here.

How the values were obtained:
[1] = molecular target: T1, Yfr024c SH3 domain (GST-fused) (Saccharomyces cerevisiae, UniProt P43603); assay: Surface plasmon resonance (BIAcoreX) dissociation constants of peptides, Yfr024c SH3 domain; format: binding; details: Figure 4A; SPR BIAcoreX, GST-SH3 coupled to CM5 chip, GST control; peptides in 10 mM HEPES, 150 mM NaCl, 3.4 mM EDTA, 0.005% P20, pH 7.4, 25°C; steady-state model; read-out: dissociation constant, SH3 DOMAINS YFR024C
T1 construct: Experiments were carried out on sensor chips with GST-fused SH3 domains and GST as a control; made in house
T1 sequence (P43603 400-459 limits assumed): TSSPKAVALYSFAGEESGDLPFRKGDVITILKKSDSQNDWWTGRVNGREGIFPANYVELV
Method: (§1) Figure 4 Measurement of Dissociation Constants and Correlation with SPOT Intensities (A) Dissociation constants were measured with a BIAcoreX instrument as described in the Materials and Methods. The experiments with the Abp1 SH3 domain were carried out in triplicate. (B) Normalized BLU intensities plotted as a function of the log of the dissociation constant.
(§2) Surface plasmon resonance measurements were carried out with a BIAcoreX instrument (BIAcore, Uppsala, Sweden). Experiments were carried out on sensor chips with GST-fused SH3 domains and GST as a control. […] Interaction analysis was performed at 25°C with the peptides dissolved in 10 mM HEPES, 150 mM NaCl, 3.4 mM EDTA, and 0.005% surfactant P20 (pH 7.4), at 15 μl/min flow rate, using six to seven dilutions, ranging from 500 μM to 65 nM. Dissociation constant values were evaluated by applying the steady-state model using BIAcore evalution 3.1 software.

[2] = molecular target: T2, Ysc84 SH3 domain (GST-fused) (Saccharomyces cerevisiae, UniProt P32793); assay: Surface plasmon resonance (BIAcoreX) dissociation constants of peptides, Ysc84 SH3 domain; format: binding; details: Figure 4A; SPR BIAcoreX, GST-SH3 coupled to CM5 chip, GST control; peptides in 10 mM HEPES, 150 mM NaCl, 3.4 mM EDTA, 0.005% P20, pH 7.4, 25°C; steady-state model; read-out: dissociation constant, SH3 DOMAINS YSC84
T2 construct: Experiments were carried out on sensor chips with GST-fused SH3 domains and GST as a control; made in house
T2 sequence (P32793 409-468 limits assumed): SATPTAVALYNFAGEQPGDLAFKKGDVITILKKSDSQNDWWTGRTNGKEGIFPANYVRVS
Method: as §1, §2

[3] = molecular target: T3, Boi2 SH3 domain (GST-fused) (Saccharomyces cerevisiae, UniProt P39969); assay: Surface plasmon resonance (BIAcoreX) dissociation constants of peptides, Boi2 SH3 domain; format: binding; details: Figure 4A; SPR BIAcoreX, GST-SH3 coupled to CM5 chip, GST control; peptides in 10 mM HEPES, 150 mM NaCl, 3.4 mM EDTA, 0.005% P20, pH 7.4, 25°C; steady-state model; read-out: dissociation constant, SH3 DOMAINS BOI2
T3 construct: Experiments were carried out on sensor chips with GST-fused SH3 domains and GST as a control; made in house
T3 sequence (P39969 43-107 limits assumed): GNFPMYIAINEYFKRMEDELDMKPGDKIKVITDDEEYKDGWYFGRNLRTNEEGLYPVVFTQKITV
Method: as §1, §2

[4] = molecular target: T4, Rvs167 SH3 domain (GST-fused) (Saccharomyces cerevisiae, UniProt P39743); assay: Surface plasmon resonance (BIAcoreX) dissociation constants of peptides, Rvs167 SH3 domain; format: binding; details: Figure 4A; SPR BIAcoreX, GST-SH3 coupled to CM5 chip, GST control; peptides in 10 mM HEPES, 150 mM NaCl, 3.4 mM EDTA, 0.005% P20, pH 7.4, 25°C; steady-state model; read-out: dissociation constant, SH3 DOMAINS RVS167
T4 construct: Experiments were carried out on sensor chips with GST-fused SH3 domains and GST as a control; made in house
Method: as §1, §2

Myo5 SH3 domain = assay: SPOT analysis of cellulose-bound peptides (WISE), Myo5 SH3 domain (Dataset S4); format: binding, Saccharomyces cerevisiae; details: for The normalized value in BLU units: Myo5 SH3 domain
[5] = SPOT analysis of cellulose-bound peptides probed with Myo5 SH3 domain, normalized value
[6] = SPOT analysis of cellulose-bound 14-mer yeast proteome peptides, normalized value, mean where the peptide was synthesized more than once
[7] = SPOT analysis of membrane-bound peptides, normalized value (see methods)
[8] = SPOT analysis of membrane-synthesized peptides probed with Myo5 SH3 domain, normalized value

T4 sequence (P39743 421-482 limits assumed): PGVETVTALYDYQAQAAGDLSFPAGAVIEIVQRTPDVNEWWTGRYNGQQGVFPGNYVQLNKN

**Q.** DIKTRSVPKIPSIE [DEM1 DIKTRSVPKIPSIE] was tested. Which Kd [1] did it give?
**A.** The Kd was greater than 100 µM.

**Q.** What about the Kd [2] of the same sequence?
**A.** The Kd was greater than 100 µM.

**Q.** And the Kd [3]?
**A.** Its Kd is greater than 100 µM.

**Q.** And the Kd [4]?
**A.** Its Kd is greater than 100 µM.

**Q.** How did the Kd [4] turn out when GKDKSRPPRPPPKP [PK1 GKDKSRPPRPPPKP] was run?
**A.** Its Kd is greater than 100 µM.

**Q.** GTTNRGPPPLPPRA [ACF2 GTTNRGPPPLPPRA] was tested. Which Kd [1] did it give?
**A.** Its Kd is 1.7 µM.

**Q.** What about the Kd [2] of the same sequence?
**A.** Its Kd is 1.1 µM.

**Q.** And the Kd [3]?
**A.** The Kd was greater than 100 µM.

**Q.** What about the Kd [4] of the same sequence?
**A.** The Kd was 6.3 µM.

**Q.** Which results are given for NAPERAVPILPPRN [YBR108W NAPERAVPILPPRN]?
**A.** Kd [1]: 4.2 µM; Kd [2]: 13 µM; Kd [3]: > 100 µM; Kd [4]: 56 µM

**Q.** With NIQPDLPPRKIMIP [YBR239C NIQPDLPPRKIMIP] as the sequence, how does the Kd [1] read?
**A.** Its Kd is 22 µM.

**Q.** And the Kd [2]?
**A.** Its Kd is 16 µM.

**Q.** And the Kd [3]?
**A.** The Kd was greater than 100 µM.

**Q.** What about the Kd [4] of the same sequence?
**A.** Its Kd is 39 µM.

**Q.** For PQQNRPLPQLPNRN [LAS17 PQQNRPLPQLPNRN], which Kd [1] is on record?
**A.** Its Kd is 19 µM.

**Q.** What about the Kd [2] of the same sequence?
**A.** The Kd was 27 µM.

**Q.** And the Kd [3]?
**A.** Its Kd is greater than 100 µM.

**Q.** What about the Kd [4] of the same sequence?
**A.** The Kd was 32 µM.

**Q.** Which results are given for RAVPILPPRNNVEP [YBR108W RAVPILPPRNNVEP]?
**A.** Kd [1]: 14 µM; Kd [2]: 13 µM; Kd [3]: > 100 µM; Kd [4]: 39 µM

**Q.** Which Kd [1] does the source give for RGPPPLPPRANVQP [ACF2 RGPPPLPPRANVQP] here?
**A.** Its Kd is 1.3 µM.

**Q.** What about the Kd [2] of the same sequence?
**A.** Its Kd is 1.6 µM.

**Q.** What about the Kd [3] of the same sequence?
**A.** Its Kd is greater than 100 µM.

**Q.** RPKRRAPPPVPKKP [YIR003 RPKRRAPPPVPKKP] was tested. Which Kd [4] did it give?
**A.** Its Kd is 13 µM.

**Q.** What does the source list for RPLPQLPNRNNRPV [LAS17 RPLPQLPNRNNRPV]?
**A.** Kd [1]: 8.9 µM; Kd [2]: 9.6 µM; Kd [3]: > 100 µM; Kd [4]: 30 µM

**Q.** What does the source list for SGPPLLPPRNTMKN [YJR083C SGPPLLPPRNTMKN]?
**A.** Kd [1]: 3.5 µM; Kd [2]: 5 µM; Kd [3]: > 100 µM; Kd [4]: 16 µM

**Q.** SSPPPLPTRRDHIK [YPR171 SSPPPLPTRRDHIK] was tested. Which Kd [1] did it give?
**A.** The Kd was 4.8 µM.

**Q.** What about the Kd [2] of the same sequence?
**A.** The Kd was 3.3 µM.

**Q.** What about the Kd [3] of the same sequence?
**A.** Its Kd is greater than 100 µM.

**Q.** What about the Kd [4] of the same sequence?
**A.** Its Kd is 16 µM.

**Q.** STPPTLPPRRIEDP [YMR192 STPPTLPPRRIEDP] was tested. Which Kd [1] did it give?
**A.** The Kd was 11 µM.

**Q.** What about the Kd [2] of the same sequence?
**A.** Its Kd is 9.1 µM.

**Q.** What about the Kd [3] of the same sequence?
**A.** Its Kd is greater than 100 µM.

**Q.** And the Kd [4]?
**A.** Its Kd is 28 µM.

**Q.** Which “The normalized value in BLU units (SPOT analysis, Myo5 SH3)” value (Myo5 SH3 domain; [5]) does the source give for VPNRWATPLDPSIL here?
**A.** Its value is 125.7 BLU.

**Q.** Which “The normalized value in BLU units” value (Myo5 SH3 domain; [6]) does the source give for VPPNFNAPPNPMAF here?
**A.** Its value is 1568.9 BLU.

**Q.** Which “The normalized value in BLU units” value (Myo5 SH3 domain; [6]) does the source give for VPSAFTAPPVPTKK here?
**A.** Its value is 358.2 BLU.

**Q.** For VQIKRADPHFPHDE, which “The normalized value in BLU units” value (Myo5 SH3 domain; [7]) is on record?
**A.** Its value is 132.0 BLU.

**Q.** For VRSKRLFPVRPMAT, which “The normalized value in BLU units” value (Myo5 SH3 domain; [7]) is on record?
**A.** The value was 503.5 BLU.

**Q.** For VSKAKLQPAKPQFT, which “The normalized value in BLU units” value (Myo5 SH3 domain; [7]) is on record?
**A.** Its value is 252.3 BLU.

**Q.** How did the “The normalized value in BLU units” value (Myo5 SH3 domain; [7]) turn out when VSQRKKRPISPHLT was run?
**A.** The value was 814.5 BLU.

**Q.** Which “The normalized value in BLU units (SPOT analysis, Myo5 SH3)” value (Myo5 SH3 domain; [8]) does the source give for VTDIKLTPTDPLVG here?
**A.** Its value is 851.7 BLU.

**Q.** For VTSVKLHPNLPIVF, which “The normalized value in BLU units” value (Myo5 SH3 domain; [6]) is on record?
**A.** Its value is 136.6 BLU.

**Q.** For VVAVKIIPKKPWNA, which “The normalized value in BLU units (SPOT analysis, Myo5 SH3)” value (Myo5 SH3 domain; [8]) is on record?
**A.** The value was 114.7 BLU.

**Q.** With VVNEKEVPAEPETQ as the sequence, how does the “The normalized value in BLU units (SPOT analysis, Myo5 SH3)” value (Myo5 SH3 domain; [8]) read?
**A.** The value was 100.0 BLU.

**Q.** How did the “The normalized value in BLU units” value (Myo5 SH3 domain; [7]) turn out when VVPERVKPAPPVSR was run?
**A.** The value was 149.8 BLU.

**Q.** Which “The normalized value in BLU units” value (Myo5 SH3 domain; [7]) does the source give for VWGPKPVPFQPMDV here?
**A.** The value was 96.9 BLU.

**Q.** For VYRRKCIPFAPHQI, which “The normalized value in BLU units (SPOT analysis, Myo5 SH3)” value (Myo5 SH3 domain; [8]) is on record?
**A.** Its value is 382.9 BLU.

**Q.** How did the “The normalized value in BLU units” value (Myo5 SH3 domain; [7]) turn out when WEALKSVPIPPRKN was run?
**A.** Its value is 379.0 BLU.

**Q.** With WENFKEEPGEPLSR as the sequence, how does the “The normalized value in BLU units (SPOT analysis, Myo5 SH3)” value (Myo5 SH3 domain; [8]) read?
**A.** Its value is 96.8 BLU.

**Q.** How did the “The normalized value in BLU units” value (Myo5 SH3 domain; [6]) turn out when WETWLYKPGMPPRP was run?
**A.** The value was 255.2 BLU.

**Q.** For WFDLKGLPRQPEPL, which “The normalized value in BLU units (SPOT analysis, Myo5 SH3)” value (Myo5 SH3 domain; [8]) is on record?
**A.** Its value is 101.7 BLU.

**Q.** Which “The normalized value in BLU units” value (Myo5 SH3 domain; [7]) does the source give for WFILKLFPHEPIEG here?
**A.** Its value is 1272.7 BLU.

**Q.** How did the “The normalized value in BLU units (SPOT analysis, Myo5 SH3)” value (Myo5 SH3 domain; [8]) turn out when WLDEKRIPSTPIDY was run?
**A.** The value was 163.3 BLU.

**Q.** For WLDEKRIPSTPVDY, which “The normalized value in BLU units” value (Myo5 SH3 domain; [7]) is on record?
**A.** The value was 240.0 BLU.

**Q.** With WLGNKYDPENPFND as the sequence, how does the “The normalized value in BLU units (SPOT analysis, Myo5 SH3)” value (Myo5 SH3 domain; [8]) read?
**A.** The value was 88.8 BLU.

**Q.** How did the “The normalized value in BLU units (SPOT analysis, Myo5 SH3)” value (Myo5 SH3 domain; [5]) turn out when WLLPYSLPMHPGRW was run?
**A.** The value was 706.0 BLU.

**Q.** How did the “The normalized value in BLU units (SPOT analysis, Myo5 SH3)” value (Myo5 SH3 domain; [5]) turn out when WLSKLVLPPPPVSI was run?
**A.** Its value is 4130.6 BLU.

**Q.** WRWARDTPRAPGLH was tested. Which “The normalized value in BLU units (SPOT analysis, Myo5 SH3)” value (Myo5 SH3 domain; [8]) did it give?
**A.** The value was 2104.5 BLU.
